In article PMC8968952, “Modulation of ERCC1-XPF Heterodimerization Inhibition via Structural Modification of Small Molecule Inhibitor Side-Chains” (Frontiers in Oncology, 2022):

Columns and labels:
HCT-116 cells = experiment: Cellular repair of cyclobutane pyrimidine dimers (cellular NER) after UVC; type: cell-based, human; conditions: 2 μM
Protocol: We followed the protocol of Mirzayans et al. ([79]) with minor modifications as previously described ([70]). Inhibitor compounds were dissolved in DMSO and applied to a final DMSO concentration of 0.2% in media and 0.2% DMSO was used as the vehicle control. Mouse anti-thymine dimer monoclonal antibody (cat. no. MC-062, Kamiya Biomedical Company, Seattle, WA) was used for the immunofluorescence following UVC irradiation of the cells and fluorescent microscopic evaluation and measurement of fluorescence intensity were performed using MetaXpress, version 6.2.1.704, software (Molecular Devices, Sunnyvale, California). Data were plotted using GraphPad Prism version 5.04 software.
Immunofluorescent detection of cyclobutane pyrimidine dimers (CPD) generated in the DNA of HCT-116 cells after exposure to UVC radiation was used to measure NER. Our observations that approximately 80% of CPD were removed 24 hours post irradiation in the absence of any inhibitors mirrors previous observations ([70], [79]).

[1] = tested on: ERCC1 or XPF levels in A549 cells; experiment: Western blot of ERCC1 and XPF protein levels (PLA control); type: cell-based, human; conditions: 2 µM, 24 h
Protocol: page 1: Supplementary Material […] Supplementary Figure 1. ERCC1-XPF mediated cleavage of the stem-loop DNA substrate, in which the FAM signal is quenched, releases the fluorescently tagged octanucleotide. Triplicate measurements of the control (DMSO) and the effect of 10 μM of compounds 4 and 6 on the incision activity is shown. 2 PLA Control Experiments Supplementary Figure 2. A549 cells were seeded in 6-well culture dishes (Thermo Fishes Scientific) at a density of 0.3 X 10^6 cells/well in a final volume of 3 ml. […] The chambers were incubated for 24 h and then washed with PBS and the cells were solubilized with RIPA buffer in the presence of protease inhibitor cocktail (Cell Signaling Technology) plus 2 mM EDTA. […] EpiGentek), XPF (LS- C173159, 1:1000; LifeSpan BioSciences, Seattle, WA) and B-Actin (sc-47778, 1:1000; Santa Cruz) primary antibodies followed by secondary anti-mouse or anti-rabbit secondary HRP-conjugated secondary antibodies. ECL chemiluminescent substrate (Promega) was used to detect the proteins. 3 Cytotoxicity Analysis Supplementary Figure 3. Cytotoxicity assay using colony forming assay 4 HCT-116 Derived XPF Knockout Cells For CRISPR deletion of XPF from HCT-116 cells, the pSpCas9(BB)-2A-GFP (pX458) vector (Addgene plasmid # 48138) was used. The short guide sequence to target XPF exon one was: 5'- [NT] 3' and target XPF exon eight was: 5'- [NT]3'. […]

[2] = Distribution coefficient (log D at pH 7.4); type: physicochemical
Protocol: (§1) The ADME (absorption, distribution, metabolism, and excretion) profile of our lead compound 6 was determined by standard protocols carried out by WuXi AppTec (Shanghai) Co (https://www.wuxiapptec.com/). The following tests were conducted: distribution coefficient (log D at pH 7.4), aqueous solubility (Kinetic), metabolic stability in human liver microsomes and cryopreserved human hepatocytes, bidirectional permeability in Caco-2 cells, serum protein binding, and cytochrome P450 (CYP) inhibition (CYP1A2, CYP2C9, CYP2C19, CYP2D6, and CYP3A4-M).

[3] = Bidirectional permeability in Caco-2 cells; type: in vitro ADME; conditions: human
Protocol: as §1

CYP1A2 = target: T1, CYP1A2 (Homo sapiens, UniProt P05177); experiment: Cytochrome P450 inhibition, CYP1A2; type: in vitro ADME
T1 sequence (P05177 1-516): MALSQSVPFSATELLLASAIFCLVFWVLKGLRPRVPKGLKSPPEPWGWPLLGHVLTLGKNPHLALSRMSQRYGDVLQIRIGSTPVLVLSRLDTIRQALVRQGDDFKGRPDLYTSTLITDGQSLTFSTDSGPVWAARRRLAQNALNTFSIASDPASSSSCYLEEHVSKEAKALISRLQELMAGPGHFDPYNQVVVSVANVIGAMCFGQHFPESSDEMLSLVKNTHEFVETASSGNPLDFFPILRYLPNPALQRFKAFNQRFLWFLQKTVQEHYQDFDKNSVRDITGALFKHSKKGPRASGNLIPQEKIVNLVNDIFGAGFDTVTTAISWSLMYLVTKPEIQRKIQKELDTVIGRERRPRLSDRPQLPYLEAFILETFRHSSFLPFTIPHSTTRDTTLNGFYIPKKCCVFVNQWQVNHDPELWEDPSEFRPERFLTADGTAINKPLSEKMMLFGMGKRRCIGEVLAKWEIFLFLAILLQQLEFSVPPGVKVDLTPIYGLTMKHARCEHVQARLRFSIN
Protocol: as §1

CYP2C19 = CYP2C19 (Homo sapiens, UniProt P33261); experiment: Cytochrome P450 inhibition, CYP2C19; type: in vitro ADME
Protocol: as §1

CYP2D6 = CYP2D6 (Homo sapiens, UniProt P10635); experiment: Cytochrome P450 inhibition, CYP2D6; type: in vitro ADME
Protocol: as §1

CYP3A4-M = CYP3A4-M (Homo sapiens, UniProt P08684); experiment: Cytochrome P450 inhibition, CYP3A4-M; type: in vitro ADME
Protocol: as §1

Chain of CYP2D6 (P10635 whole entry): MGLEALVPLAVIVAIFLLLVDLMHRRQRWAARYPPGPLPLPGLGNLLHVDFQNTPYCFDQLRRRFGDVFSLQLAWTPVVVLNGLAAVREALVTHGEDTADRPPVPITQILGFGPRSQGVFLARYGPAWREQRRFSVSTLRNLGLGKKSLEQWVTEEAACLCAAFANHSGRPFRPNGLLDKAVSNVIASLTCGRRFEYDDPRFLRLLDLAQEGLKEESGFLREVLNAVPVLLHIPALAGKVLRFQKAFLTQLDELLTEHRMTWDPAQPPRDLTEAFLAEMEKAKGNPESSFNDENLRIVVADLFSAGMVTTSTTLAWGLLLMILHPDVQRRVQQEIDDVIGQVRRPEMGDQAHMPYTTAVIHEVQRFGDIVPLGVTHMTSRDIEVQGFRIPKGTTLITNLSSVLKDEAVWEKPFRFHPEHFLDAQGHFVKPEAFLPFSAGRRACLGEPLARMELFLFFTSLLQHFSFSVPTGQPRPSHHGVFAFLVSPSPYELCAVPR
Chain of CYP3A4-M (P08684 whole entry): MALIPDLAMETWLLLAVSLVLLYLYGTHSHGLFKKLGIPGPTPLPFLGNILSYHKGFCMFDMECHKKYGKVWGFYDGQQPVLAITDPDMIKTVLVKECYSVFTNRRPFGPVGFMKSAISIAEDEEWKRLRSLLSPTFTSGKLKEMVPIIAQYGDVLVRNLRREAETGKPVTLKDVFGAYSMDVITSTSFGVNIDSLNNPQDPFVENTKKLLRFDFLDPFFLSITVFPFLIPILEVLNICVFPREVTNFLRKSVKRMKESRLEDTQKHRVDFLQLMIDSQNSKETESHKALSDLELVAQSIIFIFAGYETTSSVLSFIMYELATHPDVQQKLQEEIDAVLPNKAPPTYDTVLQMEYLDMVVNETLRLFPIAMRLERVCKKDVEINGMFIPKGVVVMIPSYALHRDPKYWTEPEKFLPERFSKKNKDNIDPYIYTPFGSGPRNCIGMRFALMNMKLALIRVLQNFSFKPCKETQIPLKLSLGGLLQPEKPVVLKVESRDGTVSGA
Chain of CYP2C19 (P33261 whole entry): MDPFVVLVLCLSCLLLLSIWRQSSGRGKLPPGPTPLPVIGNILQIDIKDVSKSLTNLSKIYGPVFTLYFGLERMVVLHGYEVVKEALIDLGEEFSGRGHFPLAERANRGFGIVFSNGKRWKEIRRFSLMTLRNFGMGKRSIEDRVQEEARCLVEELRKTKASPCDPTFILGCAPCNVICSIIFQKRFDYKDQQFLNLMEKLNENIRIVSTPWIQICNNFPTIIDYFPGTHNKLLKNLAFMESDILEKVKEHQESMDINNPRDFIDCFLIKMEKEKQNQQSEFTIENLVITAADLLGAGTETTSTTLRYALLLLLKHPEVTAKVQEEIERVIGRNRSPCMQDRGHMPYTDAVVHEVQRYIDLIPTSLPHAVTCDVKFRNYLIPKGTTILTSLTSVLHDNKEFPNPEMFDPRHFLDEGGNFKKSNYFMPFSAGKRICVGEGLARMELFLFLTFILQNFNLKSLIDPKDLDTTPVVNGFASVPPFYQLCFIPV

logD [2]: 3.95
efflux ratio [3]: 27.5
CYP1A2 inhibition grade (in words) (CYP1A2): moderate inhibitor
IC50 (CYP1A2): 6.51 µM
CYP2C19 inhibition grade (in words) (CYP2C19): weak inhibitor
IC50 (CYP2C19): 10.8 µM
CYP2D6 inhibition grade (in words) (CYP2D6): moderate inhibitor
IC50 (CYP2D6): 2.92 µM
CYP3A4-M inhibition grade (in words) (CYP3A4-M): moderate inhibitor
IC50 (CYP3A4-M): 1.9 µM
SMILES: COc1ccc2nc3cc(Cl)ccc3c(Nc3ccc(O)c(CN4CCN(CCN(C(C)C)C(C)C)CC4)c3)c2c1 [Compound 6]
effect on CPD removal / cellular NER (in words) (HCT-116 cells): significant inhibition of NER
levels of ERCC1 or XPF vs untreated cells [1]: no significant differences
